This is an account of results in patent US11759480B2, “Compositions and methods for CAR T cell therapy” (ENDOCYTE, INC., priority 2017, dated 2023).

Where only a bound is given, the exact number is not on record here.

One series concerns KB cells. Briefly: Anti-fluorescein CAR T cell activity against KB cells in vitro (Example 43). To be noted: CAR T:KB 10 to 1. Type of series: cell-based. The procedure:
(§1) FR positive cancer cell lines (e.g. KB or MDA-MB-231 cells) were seeded at density of 10^4 cells/100 μl media into 96 well plates and grown overnight. Anti-fluorescein CAR T cells were added to each well in the absence or presence of bridge molecules. After co-incubation for 6-24 hours, plates were centrifuged at 350×g for 10 min to remove debris and supernatants were analyzed for lactate dehydrogenase release (cell death analysis) using Pierce™ LDH cytotoxicity assay kit (Thermo Fisher Scientific, MA) and interferon γ (IFNγ) levels using human IFNγ ELISA kit (Biolegend, CA), while pellets were either evaluated for CAR T cell activation by staining with anti-human CD69 APC (Clone: FN50, Biolegend, CA) or examined for CAR T cell proliferation by culturing for 5 days in TexMACS™ medium (Miltenyi Biotech Inc, CA) containing 1% penicillin and streptomycin sulfate and quantitating by flow cytometry using the intrinsic GFP fluorescence and staining with anti-human CD3 APC antibody (Clone:HIT3a, Biolegend, CA).

In series [1] the test system is MDA-MB-231 cells. The series can be described thus: Bridge dose versus lysis and IFNγ release in MDA-MB-231 cell cultures (Example 43). Type of series: cell-based, human. To be noted: 0.001 to 100,000 nM, Effector:Tumor 5:1. The procedure: as §1
Although a highly elevated and prolonged CRS can often lead to patient death, some level of CRS has been viewed as desirable, since patients displaying no evidence of CRS are not commonly observed to respond to CAR T cell therapies. […]

Series [2] deals with naïve mice without tumors. The series can be described thus: FITC-CAR-T proliferation, toxicity and cytokines in naïve mice (Example 37). Type of series: in vivo. The method, then: The evaluation of FITC-CAR-T proliferation and related toxicity in both naïve mice and mice bearing FR+ tumor xenografts was tested. To evaluate whether FITC-CAR-T proliferation in vivo is dependent on the co-existence of the bridge (e.g. EC17) and the tumor antigen (e.g. folate receptor), FITC-CAR-T proliferation in vivo was compared in naïve mice and mice bearing FR+ tumor xenografts, either with or without EC17. 5-8 million CAR-T cells (as indicated in FIGS. 42 and 43) were administered (i.v.) into naïve mice without tumors and mice bearing FR+ tumor xenografts (80-200 mm3). 500 nmol/kg EC17 was dosed 4 hours before and three times per week post CAR-T administration, if desired. Mice were monitored for body weight changes and CAR-T cell count in blood circulation; some mice were also euthanized weekly to evaluate organs. […] CAR-T cell count in blood samples was also compared to evaluate CAR-T proliferation. […] Since the enlargement of spleen size is another indicator for CAR-T proliferation in vivo, spleen size was also measured as shown in FIG. 43B. […]
Cytokine levels including IFN were measured using LEGENDplex human cytokine panel kits (BioLegend, San Diego, Calif.) according to the manufacturer's instructions. Plasma samples were diluted with Assay Buffer, and then mixed with Capture beads immobilized with the antibody directed to the analyzed cytokine. After 2 hours incubation at room temperature with shaking, biotinylated Detection antibody to the analyzed cytokine was added and incubated for one more hour at room temperature with shaking. Phycoerythrin (PE) labeled streptavidin was then added to bind with biotin on the Detection antibody, and FACS was used to read the signal of PE on the binding complex (capture antibody-cytokine-detection antibody). The intensity of PE is proportional to the level of analyzed cytokine. A series of cytokine solutions with known concentrations were measured at the same time and used as standards to quantitate the cytokine levels in the analyzed samples.

The test system of series [3] is MDA-MB-231 cells. The series can be described thus: Control of CRS with bridge molecules in vivo (Example 43). Set-up: species or system NSG mice. The method, then: Mice were maintained on folic acid-deficient diet (TD.95247, Envigo) in order to reduce the level of folic acid in mice to a physiological levels found in humans. Tumors were measured every other day with calipers, and tumor volume was calculated according to equation: Tumor volume=½(L×W^2) where L is the longest axis of the tumor and W is the axis perpendicular to L. Mouse blood was also collected to measure cytokine levels (e.g. IL-2, IL-6, IFNγ, and TNFα) using LEGENDplex bead-based immunoassay (Biolegend, CA) and systemic toxicity was monitored by measuring body weight loss. All animal care and use followed by National Institutes of Health (NIH) guidelines and all experimental protocols were approved by the Purdue Animal Care and Use Committee.

The next series relates to MDA-MB-231 tumors. As to conditions: mouse, in vivo.

Description for MDA-MB-231 tumors: To evaluate whether mice with FITC-CAR-T therapy related sCRS can be rescued by using competitors which may displace EC17 from either FITC-CAR-T or FR+ tumor cells, 49 NSG mice bearing MDA-MB-231 tumors (150-250 mm3) were administered with excess FITC-CAR-T cells (8 million), 36 of them were then dosed with 500 nmol/kg EC17 48 hours post CAR-T administration, 6 of them were not dosed with EC17 and were used as “No EC17” control, and 7 of them were dosed with 260 umol/kg sodium fluorescein (no EC17 but Fluorescein) to test its toxicity. […] Each group was i.v. injected with 10 umol/kg of Leucovorin, or 10 umol/kg folic acid, or 260 umol/kg sodium fluorescein, or nothing as an un-rescued control. […] Mouse body weight changes were also monitored as the indication of toxicity. […] To evaluate whether the rescue injections affect the anti-tumor activity of FITC-CAR-T cells, these mice were dosed with 500 nmol/kg EC17 twice per week (days 9, 11, 15, 18, 22, 25, etc.) and the tumor size was monitored.

With `Nc1nc2ncc(CNc3ccc(C(=O)NC(CCC(=O)NCCNC(=S)Nc4ccc(-c5c6ccc(=O)cc-6oc6cc(O)ccc56)c(C(=O)O)c4)C(=O)O)cc3)nc2c(=O)[nH]1` (stereo not shown) [EC17, FITC-Folate], in the series on KB cells (100 nM), the IFNγ production entry is given as “induced”. For the same compound, the “proliferation of anti-fluorescein CAR T cells” value in the series with KB cells is reported as “induced”. In addition, the “bridge dose with little effect on tumor cell lysis” value in the series on MDA-MB-231 cells [1] is reported as “below 0.01 nM”. The “cytokine production (CAR-T activity)” value in series [2] (500 nmol/kg three times per week) was “not active in naïve mice”. For the same compound, the body weight entry in series [2] (500 nmol/kg three times per week or no EC17) is “did not show any apparent body weight loss”; in the series with MDA-MB-231 cells [3] (continuous dosing of 500 nmole/kg, 15×10^6 CAR T cells), “dramatic and continuous weight loss”; in the series with MDA-MB-231 cells [3] (interrupted dosing (days 4 and 6 omitted)), “only a moderate weight loss from which they rapidly recovered”; with MDA-MB-231 cells [3] (single injection per week) it was “no weight loss”; in the series with MDA-MB-231 cells [3] (three doses per week, 5×10^6 CAR T cells) it was “significant animal weight loss”; with MDA-MB-231 cells [3] (tumor-free mice) it was “no weight loss was detected”. Besides, the FITC-CAR-T proliferation result in series [2] (5 or 8 million FITC-CAR-T cells) is reported as “did not proliferate in naïve mice”. For the same compound, the tumor outcome is listed as “complete tumor eradication” in the series on MDA-MB-231 cells [3] (500 nmole/kg, days 4 and 6 omitted); “rapid increase in tumor growth” in the series on MDA-MB-231 cells [3] (continuously treated); “complete cures” in the series with MDA-MB-231 cells [3] (gradual dose escalation regimen); “complete remission of their tumors” in the series on MDA-MB-231 cells [3] (interrupted dosing); “complete cures” in the series with MDA-MB-231 cells [3] (one dose per week). Also, the “mice requiring euthanasia by day 8” value in the series on MDA-MB-231 cells [3] (15×10^6 CAR T cells, continuous alternate day 500 nmole/kg) is “three of the mice”. Further, the therapeutic benefit result in the series with MDA-MB-231 cells [3] (continuous dosing schedule) is “little therapeutic benefit”. Further, the “time to resolution of transient weight loss” value with MDA-MB-231 cells [3] (escalation 0.5 to 500 nmole/kg, 15×10^6 CAR T cells) is at most 4 days. The body weight loss in the series with MDA-MB-231 cells [3] (tumor-bearing mice, within 4 days, 5×10^6 CAR T cells + 500 nmoles/kg) is listed as around 8%. The toxicity entry with MDA-MB-231 cells [3] (two doses per week) is recorded as “less toxicity”.

For `O=C([O-])c1ccccc1-c1c2ccc(=O)cc-2oc2cc([O-])ccc12.[Na+].[Na+]` [sodium fluorescein], in the series on MDA-MB-231 tumors, the “condition of mice (toxicity test)” value is given as “healthy”.
